The text below walks through data of patent US20230146675A1, “PYRIMIDO[5,4-d]PYRIMIDINE DERIVATIVES AS ENT INHIBITORS FOR THE TREATMENT OF CANCERS, AND COMBINATION THEREOF WITH ADENOSINE RECEPTOR ANTAGONISTS” (ITEOS BELGIUM SA, priority 2020, published 2023).

For this assay, the target named is T1, human ENT1 (Homo sapiens, UniProt Q99808).
T1 sequence (Q99808 1-456): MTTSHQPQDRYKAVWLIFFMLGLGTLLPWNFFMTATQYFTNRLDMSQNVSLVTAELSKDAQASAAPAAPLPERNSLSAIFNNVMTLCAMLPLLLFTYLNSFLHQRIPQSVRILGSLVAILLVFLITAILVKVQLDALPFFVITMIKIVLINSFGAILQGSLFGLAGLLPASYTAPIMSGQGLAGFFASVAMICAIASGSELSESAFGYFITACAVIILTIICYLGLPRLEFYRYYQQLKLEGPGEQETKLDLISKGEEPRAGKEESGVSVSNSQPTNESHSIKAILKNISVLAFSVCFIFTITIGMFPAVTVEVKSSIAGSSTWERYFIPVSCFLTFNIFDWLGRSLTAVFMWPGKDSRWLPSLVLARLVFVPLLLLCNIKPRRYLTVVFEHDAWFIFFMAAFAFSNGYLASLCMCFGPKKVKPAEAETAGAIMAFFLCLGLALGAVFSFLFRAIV
As to the kind of experiment: ENT1 binding assay (competition with Sahenta-DY647 on JAR cells). Particulars: binned IC50. More on the design: JAR cells expressing ENT1 were bought from ATCC; host or cells: JAR cells. The method in brief: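 JAR cells were incubated with test compounds and the fluorescent ligand Sahenta-DY647 in competition. Plates were washed twice by centrifugation (4 min, 400 rcf, 4 °C). Binding potency was derived from the final fluorescence.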
With `COCCN(CCOC)c1nc(N2CCN(c3ncn(C)n3)CC2)c2nc(N(CCOC)CCOC)nc(NCc3ccc(F)c(C#N)c3)c2n1` [Compound 225, 5-(((2,6-bis(bis(2-methoxyethyl)amino)-8-(4-(1-methyl-1H-1,2,4-triazol-3-yl)piperazin-1-yl)pyrimido[5,4-d]pyrimidin-4-yl)amino)methyl)-2-fluorobenzonitrile], the IC50 – broadly, the point on the concentration scale where inhibition reaches its midpoint – is less than 100 nM.
Consider `COCCN(CCOC)c1nc(N2CCN(c3ncn(C)n3)CC2)c2nc(N(CCOC)CCOC)nc(NCc3cccc(S(C)(=O)=O)c3)c2n1` [Compound 226, N2,N2,N6,N6-tetrakis(2-methoxyethyl)-8-(4-(1-methyl-1H-1,2,4-triazol-3-yl)piperazin-1-yl)-N4-(3-(methylsulfonyl)benzyl)pyrimido[5,4-d]pyrimidine-2,4,6-triamine], for which the IC50 fell in the range of 100 to 500 nM.
In turn, `COCCN(CCOC)c1nc(N2CCN(c3ncn(C)n3)CC2)c2nc(N(CCOC)CCOC)nc(NCc3ccc(F)c(F)c3)c2n1` [Compound 227, N4-(3,4-difluorobenzyl)-N2,N2,N6,N6-tetrakis(2-methoxyethyl)-8-(4-(1-methyl-1H-1,2,4-triazol-3-yl)piperazin-1-yl)pyrimido[5,4-d]pyrimidine-2,4,6-triamine] yielded an IC50 of less than 100 nM.
For the molecule `COCCN(CCOC)c1nc(N2CCN(c3ncn(C)n3)CC2)c2nc(N(CCOC)CCOC)nc(NCc3cccc(S(N)(=O)=O)c3)c2n1` [Compound 228, 3-(((2,6-bis(bis(2-methoxyethyl)amino)-8-(4-(1-methyl-1H-1,2,4-triazol-3-yl)piperazin-1-yl)pyrimido[5,4-d]pyrimidin-4-yl)amino)methyl)benzenesulfonamide], the IC50 lay within 100 to 500 nM.
The figure for `COCCN(CCOC)c1nc(N2CCN(c3ncn(C)n3)CC2)c2nc(N(CCOC)CCOC)nc(NCc3cccc(C(N)=O)c3)c2n1` [Compound 229, 3-(((2,6-bis(bis(2-methoxyethyl)amino)-8-(4-(1-methyl-1H-1,2,4-triazol-3-yl)piperazin-1-yl)pyrimido[5,4-d]pyrimidin-4-yl)amino)methyl)benzamide] is 100 to 500 nM; for `COCCN(CCOC)c1nc(N2CCN(C)C(=O)C2)c2nc(N(CCOC)CCOC)nc(N(C)Cc3ccccc3)c2n1` [Compound 230, 4-(8-(benzyl(methyl)amino)-2,6-bis(bis(2-methoxyethyl)amino)pyrimido[5,4-d]pyrimidin-4-yl)-1-methylpiperazin-2-one] it is less than 100 nM.
Molecule `COCCN(CCOC)c1nc(N2CCC(OC)CC2)c2nc(N(CCOC)CCOC)nc(N(C)Cc3cccc(OC(F)(F)F)c3)c2n1` [Compound 231, N2,N2,N6,N6-tetrakis(2-methoxyethyl)-8-(4-methoxypiperidin-1-yl)-N4-methyl-N4-(3-(trifluoromethoxy)benzyl)pyrimido[5,4-d]pyrimidine-2,4,6-triamine] showed an IC50 of 100 to 500 nM.
Molecule `CCOCCN(CCOCC)c1nc(N2CCN(C)C(=O)C2)c2nc(N(CCOCC)CCOCC)nc(N(C)Cc3ccccc3)c2n1` [Compound 232, 4-(8-(benzyl(methyl)amino)-2,6-bis(bis(2-ethoxyethyl)amino)pyrimido[5,4-d]pyrimidin-4-yl)-1-methylpiperazin-2-one] returned an IC50 of less than 100 nM.
To `COCCN(CCOC)c1nc(N2CCN(C)C(=O)C2)c2nc(N(CCOC)CCOC)nc(N(C)Cc3cccc(F)c3)c2n1` [Compound 233, 4-(2,6-bis(bis(2-methoxyethyl)amino)-8-((3-fluorobenzyl)(methyl)amino)pyrimido[5,4-d]pyrimidin-4-yl)-1-methylpiperazin-2-one] belongs less than 100 nM; to `COCCN(CCOC)c1nc(N2CCN(C)C(=O)C2)c2nc(N(CCOC)CCOC)nc(N(C)Cc3cccc(Cl)c3)c2n1` [Compound 234, 4-(2,6-bis(bis(2-methoxyethyl)amino)-8-((3-chlorobenzyl)(methyl)amino)pyrimido[5,4-d]pyrimidin-4-yl)-1-methylpiperazin-2-one], less than 100 nM.
Molecule `COCCN(CCOC)c1nc(N2CCN(C)C(=O)C2)c2nc(N(CCOC)CCOC)nc(N(C)Cc3cccc(OC)c3)c2n1` [Compound 235, 4-(2,6-bis(bis(2-methoxyethyl)amino)-8-((3-methoxybenzyl)(methyl)amino)pyrimido[5,4-d]pyrimidin-4-yl)-1-methylpiperazin-2-one] registered an IC50 of less than 100 nM.
The figure for `COCCN(CCOC)c1nc(N2CCN(C)C(=O)C2)c2nc(N(CCOC)CCOC)nc(N(C)Cc3cccc(OC(F)(F)F)c3)c2n1` [Compound 236, 4-(2,6-bis(bis(2-methoxyethyl)amino)-8-(methyl(3-(trifluoromethoxy)benzyl)amino)pyrimido[5,4-d]pyrimidin-4-yl)-1-methylpiperazin-2-one] is less than 100 nM; for `COCCN(CCOC)c1nc(N2CCN(C)C(=O)C2)c2nc(N(CCOC)CCOC)nc(N(C)Cc3cccc(C#N)c3)c2n1` [Compound 237, 3-(((2,6-bis(bis(2-methoxyethyl)amino)-8-(4-methyl-3-oxopiperazin-1-yl)pyrimido[5,4-d]pyrimidin-4-yl)(methyl)amino)methyl)benzonitrile] it is less than 100 nM.
The molecule `COCCN(CCOC)c1nc(N2CCN(C)C(=O)C2)c2nc(N(CCOC)CCOC)nc(N(C)Cc3ccc(F)c(C#N)c3)c2n1` [Compound 238, 5-(((2,6-bis(bis(2-methoxyethyl)amino)-8-(4-methyl-3-oxopiperazin-1-yl)pyrimido[5,4-d]pyrimidin-4-yl)(methyl)amino)methyl)-2-fluorobenzonitrile] gave an IC50 of less than 100 nM.
In turn, `COCCN(CCOC)c1nc(N2CCN(C)C(=O)C2)c2nc(N(CCOC)CCOC)nc(N(C)Cc3ccc(F)c(F)c3)c2n1` [Compound 239, 4-(2,6-bis(bis(2-methoxyethyl)amino)-8-((3,4-difluorobenzyl)(methyl)amino)pyrimido[5,4-d]pyrimidin-4-yl)-1-methylpiperazin-2-one] yielded an IC50 of less than 100 nM.
Molecule `COCCN(CCOC)c1nc(N2CCN(C)C(=O)C2)c2nc(N(CCOC)CCOC)nc(N(C)Cc3cccc(C(N)=O)c3)c2n1` [Compound 240, 3-(((2,6-bis(bis(2-methoxyethyl)amino)-8-(4-methyl-3-oxopiperazin-1-yl)pyrimido[5,4-d]pyrimidin-4-yl)(methyl)amino)methyl)benzamide] registered an IC50 of 100 to 500 nM.
The figure for `COCCN(CCOC)c1nc(N2CCN(c3ncn(C)n3)CC2)c2nc(N(CCOC)CCOC)nc(N(C)Cc3cccc(F)c3)c2n1` [Compound 241, N4-(3-fluorobenzyl)-N2,N2,N6,N6-tetrakis(2-methoxyethyl)-N4-methyl-8-(4-(1-methyl-1H-1,2,4-triazol-3-yl)piperazin-1-yl)pyrimido[5,4-d]pyrimidine-2,4,6-triamine] is 100 to 500 nM; for `COCCN(CCOC)c1nc(N2CCN(c3ncn(C)n3)CC2)c2nc(N(CCOC)CCOC)nc(N(C)Cc3cccc(Cl)c3)c2n1` [Compound 242, N4-(3-chlorobenzyl)-N2,N2,N6,N6-tetrakis(2-methoxyethyl)-N4-methyl-8-(4-(1-methyl-1H-1,2,4-triazol-3-yl)piperazin-1-yl)pyrimido[5,4-d]pyrimidine-2,4,6-triamine] it is 500 to 1000 nM.
`COCCN(CCOC)c1nc(N2CCN(c3ncn(C)n3)CC2)c2nc(N(CCOC)CCOC)nc(N(C)Cc3cccc(OC)c3)c2n1` [Compound 243, N4-(3-methoxybenzyl)-N2,N2,N6,N6-tetrakis(2-methoxyethyl)-N4-methyl-8-(4-(1-methyl-1H-1,2,4-triazol-3-yl)piperazin-1-yl)pyrimido[5,4-d]pyrimidine-2,4,6-triamine] gave an IC50 of less than 100 nM.
